Measurements reported in patent US12570666B2, “Furoindazole derivatives” (Bayer Aktiengesellschaft, priority 2019, dated 2026).
pIC50: −log10 of the molar value.

Biological target: T1, human GPR84 receptor (Homo sapiens, UniProt Q9NQS5)
T1 construct: frozen aliquots prepared by acCELLerate; host or cells: CHO-K1
Assay: cAMP HTRF assay for identification of cellular GPR84 antagonists
Format: cell-based
Conditions: CHO-K1 cells stably expressing human GPR84; Forskolin + agonist 6-OAU (EC80); average or median values
Procedure, shortened: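 Forskolin-stimulated CHO-K1 cells stably expressing human GPR84, agonist-suppressed cAMP measured by HTRF (665/620 ratio) after lysis. Compounds at 11 concentrations, 20 μM to 0.07 nM, duplicate; normalized to DMSO and no-agonist controls; IC50 by 4-parameter fit.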

T1 sequence (Q9NQS5 whole entry): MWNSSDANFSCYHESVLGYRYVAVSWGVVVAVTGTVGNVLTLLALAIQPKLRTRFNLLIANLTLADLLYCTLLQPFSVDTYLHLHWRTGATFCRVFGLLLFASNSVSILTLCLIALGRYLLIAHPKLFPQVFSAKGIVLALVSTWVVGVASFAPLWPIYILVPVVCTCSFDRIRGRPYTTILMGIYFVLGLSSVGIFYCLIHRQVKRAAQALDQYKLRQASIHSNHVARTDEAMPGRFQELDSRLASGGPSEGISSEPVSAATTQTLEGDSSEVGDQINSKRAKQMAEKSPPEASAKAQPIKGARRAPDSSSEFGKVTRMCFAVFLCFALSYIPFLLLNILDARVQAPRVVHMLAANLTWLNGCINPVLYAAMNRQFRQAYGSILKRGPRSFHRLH

Compound | pIC50
Cc1c(C(=O)NCc2cc[nH]n2)oc2c1-c1nn(Cc3ccccn3)cc1CC2 [Example 22, 8-methyl-N-(1H-pyrazol-3-ylmethyl)-2-(pyridin-2-ylmethyl)-4,5-dihydro-2H-furo[2,3-g]indazole-7-carboxamide] | 6.47
Cc1c(C(=O)NC[C@@H]2CCCO2)oc2c1-c1nn(CC3CN(C(=O)OCc4ccccc4)C3)cc1CC2 [Example 156, benzyl 3-[(8-methyl-7-{[(2S)-tetrahydrofuran-2-ylmethyl]carbamoyl}-4,5-dihydro-2H-furo[2,3-g]indazol-2-yl)methyl]azetidine-1-carboxylate] | 8.05
O=C(NC[C@@H]1COCCO1)c1oc2c(c1C(F)(F)F)-c1nn(C[C@H]3COCCO3)cc1C1(CCC1)C2 [Example 269, N-[(2R)-1,4-dioxan-2-ylmethyl]-2′-[(2S)-1,4-dioxan-2-ylmethyl]-8′-(trifluormethyl)-2′,5′-dihydrospiro[cyclobutan-1,4′-furo[2,3-g]indazol]-7′-carboxamide] | 7.57
CN1CCC(Cn2cc3c(n2)-c2c(oc(C(=O)NC[C@@H]4CCCO4)c2C(F)(F)F)CC3)CC1 [Example 308, 2-[(1-methylpiperidin-4-yl)methyl]-N-{[(2S)-oxolan-2-yl]methyl}-8-(trifluoromethyl)-4,5-dihydro-2H-furo[2,3-g]indazole-7-carboxamide] | 6.82
Cc1noc(C)c1CNC(=O)c1oc2c(c1C)-c1nn(Cc3ccccn3)cc1CC2 [Example 27, N-[(3,5-dimethyl-1,2-oxazol-4-yl)methyl]-8-methyl-2-(pyridin-2-ylmethyl)-4,5-dihydro-2H-furo[2,3-g]indazole-7-carboxamide] | 4.76
Cc1c(C(=O)NC[C@@H]2CCCO2)oc2c1-c1nn(C[C@H]3CN(C)CCO3)cc1CC2 [Example 101, 8-methyl-2-{[(2R)-4-methylmorpholin-2-yl]methyl}-N-[(2S)-tetrahydrofuran-2-ylmethyl]-4,5-dihydro-2H-furo[2,3-g]indazole-7-carboxamide] | 5.81
Cc1cc(Cn2cc3c(n2)-c2c(oc(C(=O)NC[C@@H]4COCCO4)c2C)CC3)ccn1 [Example 80, N-[(2R)-1,4-dioxan-2ylmethyl]-8-methyl-2-[(2-methylpyridin-4-yl)methyl]-4,5-dihydro-2H-furo[2,3-g]indazole-7-carboxamide] | 7.24
O=C(NC[C@H]1COCCO1)c1oc2c(c1C(F)(F)F)-c1nn(C[C@H]3COCCO3)cc1CC2 [Example 300, N,2-bis{[(2S)-1,4-dioxan-2-yl]methyl}-8-(trifluoromethyl)-4,5-dihydro-2H-furo[2,3-g]indazole-7-carboxamide] | 6.49
CCN1CCC(Cn2cc3c(n2)-c2c(oc(C(=O)NC[C@@H]4CCCO4)c2C(F)(F)F)CC3)CC1 [Example 311, 2-[(1-ethylpiperidin-4-yl)methyl]-N-{[(2S)-oxolan-2-yl]methyl}-8-(trifluoromethyl)-4,5-dihydro-2H-furo[2,3-g]indazole-7-carboxamide] | 6.69
O=C(NC[C@H]1CC(F)(F)CO1)c1oc2c(c1C(F)(F)F)-c1nn(C[C@H]3COCCO3)cc1CC2 (single isomer, unassigned) [Example 222-1, N-{[(2R or 2S)-4,4-difluorooxolan-2-yl]methyl}-2-{[(2S)-1,4-dioxan-2-yl]methyl}-8-(trifluoromethyl)-4,5-dihydro-2H-furo[2,3-g]indazole-7-carboxamide] | 7.92
Cc1c(C(=O)NCC2CCO2)oc2c1-c1nn(Cc3ccccn3)cc1CC2 (single isomer, unassigned) [Example 35-2] | 6.11
Cc1c(C(=O)NCc2ncco2)oc2c1-c1nn(C[C@H]3COCCO3)cc1C1(CC1)C2 [Example 128, 2′-[(2S)-1,4-dioxan-2-ylmethyl]-8′-methyl-N-(1,3-oxazol-2-ylmethyl)-2′,5′-dihydrospiro[cyclopropane-1,4′-furo[2,3-g]indazole]-7′-carboxamide] | 6.96
Cc1c(C(=O)NC[C@@H]2CCCO2)oc2c1-c1nn(C[C@H]3COCCO3)cc1C1(CCC1)C2 [Example 143, 2′-[(2S)-1,4-dioxan-2-ylmethyl]-8′-methyl-N-[(2S)-tetrahydrofuran-2-ylmethyl]-2′,5′-dihydrospiro[cyclobutane-1,4′-furo[2,3-g]indazole]-7′-carboxamide] | 7.11
Cc1c(C(=O)NC[C@@H]2CCCO2)oc2c1-c1nn(C[C@H]3COCCO3)cc1C(C(F)(F)F)C2 (mixture of isomers) [Example 266, (4±)-2-{[(2S)-1,4-dioxan-2-yl]methyl}-8-methyl-N-{[(2S)-oxolan-2-yl]methyl}-4-(trifluoromethyl)-4,5-dihydro-2H-furo[2,3-g]indazole-7-carboxamide] | 6.22
Cc1c(C(=O)NC[C@@H]2COCCO2)oc2c1-c1nn(C[C@H]3COCCO3)cc1[C@H](C(F)(F)F)C2 (single isomer, unassigned) [Example 265-1, (4R or 4S)-N-{[(2R)-1,4-dioxan-2-yl]methyl}-2-{[(2S)-1,4-dioxan-2-yl]methyl}-8-methyl-4-(trifluoromethyl)-4,5-dihydro-2H-furo[2,3-g]indazole-7-carboxamide] | 6.73
Cc1cccc(CNC(=O)c2oc3c(c2C(F)(F)F)-c2nn(C[C@H]4COCCO4)cc2[C@H](C)C3)n1 (single isomer, unassigned) [Example 315, (4R or 4S)-2-{[(2S)-1,4-dioxan-2-yl]methyl}-4-methyl-N-[(6-methylpyridin-2-yl)methyl]-8-(trifluoromethyl)-4,5-dihydro-2H-furo[2,3-g]indazole-7-carboxamide] | 6.58
Cc1c(C(=O)NCC2COc3ncccc3O2)oc2c1-c1nn(Cc3ccccn3)cc1CC2 (racemic) [Example 9, N-[(2R/S)-2,3-dihydro[1,4]dioxino[2,3-b]pyridin-2-ylmethyl]-8-methyl-2-(pyridin-2-ylmethyl)-4,5-dihydro-2H-furo[2,3-g]indazole-7-carboxamide] | 6.72
Cc1c(C(=O)NC[C@@H]2COCCO2)oc2c1-c1nn(Cc3ccccn3)cc1C(C)C2 (mixture of isomers) [Example 246, (4±)-N-{[(2R)-1,4-dioxan-2-yl]methyl}-4,8-dimethyl-2-[(pyridin-2-yl)methyl]-4,5-dihydro-2H-furo[2,3-g]indazole-7-carboxamide] | 7.12
Cc1cccnc1Cn1cc2c(n1)-c1c(oc(C(=O)NC[C@@H]3CCCO3)c1C)CC2 [Example 62, 8-methyl-2-[(3-methylpyridin-2-yl)methyl]-N-[(2S)-tetrahydrofuran-2-ylmethyl]-4,5-dihydro-2H-furo[2,3-g]indazole-7-carboxamide] | 6.96
Cc1c(C(=O)Nc2cccnc2)oc2c1-c1nn(Cc3ccccn3)cc1CC2 [Example 41, 8-methyl-N-(pyridin-3-yl)-2-(pyridin-2-ylmethyl)-4,5-dihydro-2H-furo[2,3-g]indazole-7-carboxamide] | 5.27
CC1(C)CCC(CNC(=O)c2oc3c(c2C(F)(F)F)-c2nn(C[C@H]4COCCO4)cc2CC3)O1 (mixture of isomers) [Example 223, N-{[(2±)-5,5-dimethyloxolan-2-yl]methyl}-2-{[(2S)-1,4-dioxan-2-yl]methyl}-8-(trifluoromethyl)-4,5-dihydro-2H-furo[2,3-g]indazole-7-carboxamide] | 7.64
Cc1c(C(=O)NC[C@@H]2CCCO2)oc2c1-c1nn(Cc3ccccn3)cc1C1(CC1)C2 [Example 149] | 8.00
Cc1c(C(=O)NCC2CCC(C)(C)O2)oc2c1-c1nn(Cc3ccccn3)cc1CC2 (racemic) [Example 170] | 7.52
Cc1c(C(=O)NC[C@@H]2CCCO2)oc2c1-c1nn(C(C)(C)c3cccnc3)cc1CC2 [Example 289, 8-methyl-N-{[(2S)-oxolan-2-yl]methyl}-2-[2-(pyridin-3-yl)propan-2-yl]-4,5-dihydro-2H-furo[2,3-g]indazole-7-carboxamide] | 6.10
Cc1c(C(=O)NCC2COCC(C)(C)O2)oc2c1-c1nn(Cc3ccccn3)cc1CC2 (racemic) [Example 181] | 6.99
Cc1c(C(=O)NC[C@@H]2COCCO2)oc2c1-c1nn(C[C@H]3CCOC3)cc1CC2 [Example 112, N-[(2R)-1,4-dioxan-2-ylmethyl]-8-methyl-2-[(3R)-tetrahydrofuran-3-ylmethyl]-4,5-dihydro-2H-furo[2,3-g]indazole-7-carboxamide] | 6.49
Cc1c(C(=O)NC[C@@H]2COCCO2)oc2c1-c1nn(C[C@H]3CCCO3)cc1CC2 [Example 106, N[(2R)-1,4-dioxan-2-ylmethyl]-8-methyl-2-[(2R)-tetrahydrofuran-2-ylmethyl]-4,5-dihydro-2H-furo[2,3-g]indazole-7-carboxamide] | 7.11
O=C(NC[C@@H]1CCCO1)c1oc2c(c1C1CC1)-c1nn(Cc3ccccn3)cc1CC2 [Example 119, 8-cyclopropyl-2-(pyridin-2-ylmethyl)-N-[(2S)-tetrahydrofuran-2-ylmethyl]-4,5-dihydro-2H-furo[2,3-g]indazole-7-carboxamide] | 7.55
Cc1cccc(Cn2cc3c(n2)-c2c(oc(C(=O)NCc4ccn(C)n4)c2C)CC3)n1 [Example 71, 8-methyl-N-[(1-methyl-1H-pyrazol-3-yl)methyl]-2-[(6-methylpyridin-2-yl)methyl]-4,5-dihydro-2H-furo[2,3-g]indazole-7-carboxamide] | 6.44
C[C@@H]1Cc2oc(C(=O)NCc3nccs3)c(C(F)(F)F)c2-c2nn(C[C@H]3COCCO3)cc21 (single isomer, unassigned) [Example 259, (4R or 4S)-2-{[(2S)-1,4-dioxan-2-yl]methyl}-4-methyl-N-[(1,3-thiazol-2-yl)methyl]-8-(trifluoromethyl)-4,5-dihydro-2H-furo[2,3-g]indazole-7-carboxamide] | 8.30
